The values that follow are results of earlier work, collected in patent US20130039858A1, “NIR MATERIALS AND NANOMATERIALS FOR THERANOSTIC APPLICATIONS” (University of Florida Research Foundation, Inc., priority 2010, published 2013).

For the series the following is noted: in H2O.

On to `CC1(C)C(/C=C/C=C/C=C/C=C2\N(CCCCS(=O)(=O)O)c3ccc4ccccc4c3C2(C)C)=[N+](CCCCS(=O)(=O)[O-])c2ccc3ccccc3c21` [ICG, indocyanine green], for which the critical micelle concentration entry is “about 0.32 mg/mL”.
